Source: PubChem BioAssay (NCI)
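Results reflect a 48-hour exposure of cells in 96-well plates to compound at five concentrations. GI50 marks 50% less growth. TGI is the concentration that stops growth completely.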

How the values were obtained:
Experiment in all cases: DTP human tumour cell line panel, 48 h
786-0 renal = tested on: 786-0 renal
A549 NSCLC = tested on: A549 NSCLC
ACHN renal = tested on: ACHN renal
BT-549 breast = tested on: BT-549 breast
CAKI-1 renal = tested on: CAKI-1 renal
CCRF-CEM leukemia = tested on: CCRF-CEM leukemia
COLO 205 colon = tested on: COLO 205 colon
DU-145 prostate = tested on: DU-145 prostate
EKVX NSCLC = tested on: EKVX NSCLC
HCC-2998 colon = tested on: HCC-2998 colon
HCT-15 colon = tested on: HCT-15 colon
HOP-62 NSCLC = tested on: HOP-62 NSCLC
HOP-92 NSCLC = tested on: HOP-92 NSCLC
K-562 leukemia = tested on: K-562 leukemia
KM12 colon = tested on: KM12 colon
LOX IMVI melanoma = tested on: LOX IMVI melanoma
M14 melanoma = tested on: M14 melanoma
MCF7 breast = tested on: MCF7 breast
MDA-MB-231 breast = tested on: MDA-MB-231 breast
MDA-MB-435 = tested on: MDA-MB-435
MDA-N = tested on: MDA-N
MOLT-4 leukemia = tested on: MOLT-4 leukemia
NCI-H226 lung = tested on: NCI-H226 lung
NCI-H23 lung = tested on: NCI-H23 lung
NCI-H522 lung = tested on: NCI-H522 lung
NCI/ADR-RES ovarian = tested on: NCI/ADR-RES ovarian
OVCAR-3 ovarian = tested on: OVCAR-3 ovarian
OVCAR-4 ovarian = tested on: OVCAR-4 ovarian
OVCAR-5 ovarian = tested on: OVCAR-5 ovarian
OVCAR-8 ovarian = tested on: OVCAR-8 ovarian
PC-3 prostate = tested on: PC-3 prostate
RXF 393 renal = tested on: RXF 393 renal
SF-268 CNS = tested on: SF-268 CNS
SF-295 CNS = tested on: SF-295 CNS
SK-MEL-2 melanoma = tested on: SK-MEL-2 melanoma
SK-MEL-28 melanoma = tested on: SK-MEL-28 melanoma
SK-MEL-5 melanoma = tested on: SK-MEL-5 melanoma
SK-OV-3 ovarian = tested on: SK-OV-3 ovarian
SN12C renal = tested on: SN12C renal
SNB-19 CNS = tested on: SNB-19 CNS
SNB-75 CNS = tested on: SNB-75 CNS
SW-620 colon = tested on: SW-620 colon
T-47D breast = tested on: T-47D breast
TK-10 renal = tested on: TK-10 renal
U251 CNS = tested on: U251 CNS
UACC-257 melanoma = tested on: UACC-257 melanoma
UACC-62 melanoma = tested on: UACC-62 melanoma
UO-31 renal = tested on: UO-31 renal
A498 renal = tested on: A498 renal
HCT-116 colon = tested on: HCT-116 colon
HL-60(TB) leukemia = tested on: HL-60(TB) leukemia
HS 578T breast = tested on: HS 578T breast
HT29 colon = tested on: HT29 colon
IGROV1 ovarian = tested on: IGROV1 ovarian
MALME-3M melanoma = tested on: MALME-3M melanoma
NCI-H460 lung = tested on: NCI-H460 lung
RPMI-8226 leukemia = tested on: RPMI-8226 leukemia
SF-539 CNS = tested on: SF-539 CNS
SR leukemia = tested on: SR leukemia

## COC(=O)C1CCC(=O)N1C(c1ccc(OC)cc1)c1cc(OC)c(OC)c(OC)c1 (stereo unspecified)
786-0 renal
  TGI: > 100 µM
A549 NSCLC
  TGI: > 100 µM
ACHN renal
  TGI: > 100 µM
BT-549 breast
  TGI: > 100 µM
CAKI-1 renal
  TGI: > 100 µM
CCRF-CEM leukemia
  TGI: > 100 µM
COLO 205 colon
  TGI: 0.802 µM
DU-145 prostate
  TGI: 0.771 µM
EKVX NSCLC
  TGI: > 100 µM
HCC-2998 colon
  TGI: 0.6 µM
HCT-15 colon
  TGI: > 100 µM
HOP-62 NSCLC
  TGI: > 100 µM
HOP-92 NSCLC
  TGI: > 100 µM
K-562 leukemia
  TGI: > 75.8 µM
KM12 colon
  TGI: 1.12 µM
LOX IMVI melanoma
  TGI: > 36.9 µM
M14 melanoma
  TGI: 21.6 µM
MCF7 breast
  TGI: > 100 µM
MDA-MB-231 breast
  TGI: 64.9 µM
MDA-MB-435
  TGI: 0.243 µM
MDA-N
  TGI: 1.97 µM
MOLT-4 leukemia
  TGI: > 61.1 µM
NCI-H226 lung
  TGI: 2.11 µM
NCI-H23 lung
  TGI: > 100 µM
NCI-H522 lung
  TGI: 0.212 µM
NCI/ADR-RES ovarian
  TGI: 1.01 µM
OVCAR-3 ovarian
  TGI: 0.597 µM
OVCAR-4 ovarian
  TGI: > 100 µM
OVCAR-5 ovarian
  TGI: > 100 µM
OVCAR-8 ovarian
  TGI: > 100 µM
PC-3 prostate
  TGI: > 37.4 µM
RXF 393 renal
  TGI: 0.361 µM
SF-268 CNS
  TGI: > 100 µM
SF-295 CNS
  TGI: 0.465 µM
SK-MEL-2 melanoma
  TGI: > 100 µM
SK-MEL-28 melanoma
  TGI: > 100 µM
SK-MEL-5 melanoma
  TGI: 3.43 µM
SK-OV-3 ovarian
  TGI: > 100 µM
SN12C renal
  TGI: > 100 µM
SNB-19 CNS
  TGI: > 100 µM
SNB-75 CNS
  TGI: > 94.7 µM
SW-620 colon
  TGI: > 100 µM
T-47D breast
  TGI: > 100 µM
TK-10 renal
  TGI: > 100 µM
U251 CNS
  TGI: > 100 µM
UACC-257 melanoma
  TGI: > 100 µM
UACC-62 melanoma
  TGI: > 100 µM
UO-31 renal
  TGI: > 100 µM

## Cc1cc2c(F)c(Oc3ncnc(Nc4ccc(N5C[C@@H](C)N[C@@H](C)C5)cc4)c3C#N)cc(F)c2[nH]1
786-0 renal
  GI50: 1.62 µM
  TGI: 3.64 µM
A498 renal
  GI50: 0.0134 µM
  TGI: 0.384 µM
A549 NSCLC
  GI50: 2.84 µM
  TGI: 8.02 µM
ACHN renal
  GI50: 2.05 µM
  TGI: 4.21 µM
BT-549 breast
  GI50: 0.816 µM
  TGI: 2.38 µM
CAKI-1 renal
  GI50: 2.99 µM
  TGI: 10.9 µM
CCRF-CEM leukemia
  GI50: 1.64 µM
  TGI: 9.16 µM
COLO 205 colon
  GI50: 1.68 µM
  TGI: 3.58 µM
DU-145 prostate
  GI50: 3.31 µM
  TGI: 11.1 µM
EKVX NSCLC
  GI50: 3.39 µM
  TGI: 14.7 µM
HCC-2998 colon
  GI50: 1.97 µM
  TGI: 4.14 µM
HCT-116 colon
  GI50: 1.69 µM
  TGI: 3.2 µM
HCT-15 colon
  GI50: 1.73 µM
  TGI: 4.24 µM
HL-60(TB) leukemia
  GI50: 1.93 µM
  TGI: 3.95 µM
HOP-62 NSCLC
  GI50: 2.86 µM
  TGI: 9.87 µM
HOP-92 NSCLC
  GI50: 2.07 µM
  TGI: 8.85 µM
HS 578T breast
  GI50: 1.77 µM
  TGI: 5.4 µM
HT29 colon
  GI50: 0.583 µM
  TGI: 2.49 µM
IGROV1 ovarian
  GI50: 2.48 µM
  TGI: 6.91 µM
K-562 leukemia
  GI50: 1.62 µM
  TGI: 3.83 µM
KM12 colon
  GI50: 2.55 µM
  TGI: 7.3 µM
LOX IMVI melanoma
  GI50: 1.6 µM
  TGI: 3.08 µM
M14 melanoma
  GI50: 1.87 µM
  TGI: 3.59 µM
MALME-3M melanoma
  GI50: 1.61 µM
  TGI: 3.48 µM
MCF7 breast
  GI50: 1.7 µM
  TGI: 4.29 µM
MDA-MB-231 breast
  GI50: 1.98 µM
  TGI: 4.39 µM
MDA-MB-435
  GI50: 2.03 µM
  TGI: 4.61 µM
MOLT-4 leukemia
  GI50: 1.67 µM
  TGI: 5.44 µM
NCI-H226 lung
  GI50: 1.39 µM
  TGI: 11.6 µM
NCI-H23 lung
  GI50: 2.44 µM
  TGI: 11.3 µM
NCI-H460 lung
  GI50: 2.06 µM
  TGI: 4.37 µM
NCI-H522 lung
  GI50: 2.14 µM
  TGI: 4.54 µM
NCI/ADR-RES ovarian
  GI50: 3.85 µM
  TGI: 20.9 µM
OVCAR-3 ovarian
  GI50: 1.75 µM
  TGI: 3.46 µM
OVCAR-4 ovarian
  GI50: 1.22 µM
  TGI: 6.04 µM
OVCAR-5 ovarian
  GI50: 2.8 µM
  TGI: 8.68 µM
OVCAR-8 ovarian
  GI50: 2.8 µM
  TGI: 9.11 µM
PC-3 prostate
  GI50: 3.05 µM
  TGI: 11.4 µM
RPMI-8226 leukemia
  GI50: 1.72 µM
  TGI: 4.33 µM
RXF 393 renal
  GI50: 0.641 µM
  TGI: 2.44 µM
SF-268 CNS
  GI50: 2.07 µM
  TGI: 8.36 µM
SF-295 CNS
  GI50: 1.95 µM
  TGI: 3.94 µM
SF-539 CNS
  GI50: 1.53 µM
  TGI: 2.94 µM
SK-MEL-2 melanoma
  GI50: 2.2 µM
  TGI: 4.67 µM
SK-MEL-28 melanoma
  GI50: 1.96 µM
  TGI: 3.7 µM
SK-MEL-5 melanoma
  GI50: 1.71 µM
  TGI: 3.13 µM
SK-OV-3 ovarian
  GI50: 3.91 µM
  TGI: 13.7 µM
SN12C renal
  GI50: 3.39 µM
  TGI: 14.3 µM
SNB-19 CNS
  GI50: 5.07 µM
  TGI: 18.8 µM
SNB-75 CNS
  GI50: 1.1 µM
  TGI: 3.18 µM
SR leukemia
  GI50: 1.63 µM
  TGI: 4.35 µM
SW-620 colon
  GI50: 1.83 µM
  TGI: 4.1 µM
T-47D breast
  GI50: 1.97 µM
  TGI: 5.57 µM
TK-10 renal
  GI50: 2.65 µM
  TGI: 6.31 µM
U251 CNS
  GI50: 1.72 µM
  TGI: 4.47 µM
UACC-257 melanoma
  GI50: 2.06 µM
  TGI: 4.04 µM
UACC-62 melanoma
  GI50: 2.37 µM
  TGI: 4.89 µM
UO-31 renal
  GI50: 1.1 µM
  TGI: 3.39 µM

## COc1ccc2[nH]cc(CCNC(=O)[C@H](Cc3ccc(O)cc3)NC(=O)[C@@H](NCC(F)(F)F)C(C)C)c2c1
786-0 renal
  TGI: > 100 µM
A549 NSCLC
  TGI: > 100 µM
ACHN renal
  TGI: > 100 µM
BT-549 breast
  TGI: > 100 µM
CCRF-CEM leukemia
  TGI: > 100 µM
COLO 205 colon
  TGI: > 100 µM
DU-145 prostate
  TGI: > 100 µM
EKVX NSCLC
  TGI: > 100 µM
HCT-116 colon
  TGI: > 100 µM
HCT-15 colon
  TGI: > 100 µM
HL-60(TB) leukemia
  TGI: > 100 µM
HOP-62 NSCLC
  TGI: > 100 µM
HOP-92 NSCLC
  TGI: > 100 µM
HS 578T breast
  TGI: 91.1 µM
HT29 colon
  TGI: > 100 µM
IGROV1 ovarian
  TGI: > 100 µM
K-562 leukemia
  TGI: > 100 µM
KM12 colon
  TGI: > 100 µM
LOX IMVI melanoma
  TGI: > 100 µM
M14 melanoma
  TGI: > 100 µM
MALME-3M melanoma
  TGI: > 100 µM
MCF7 breast
  TGI: > 100 µM
MDA-MB-231 breast
  TGI: > 100 µM
MDA-MB-435
  TGI: 83.3 µM
MDA-N
  TGI: > 100 µM
MOLT-4 leukemia
  TGI: > 100 µM
NCI-H226 lung
  TGI: > 100 µM
NCI-H23 lung
  TGI: > 100 µM
NCI-H460 lung
  TGI: > 100 µM
NCI-H522 lung
  TGI: > 100 µM
NCI/ADR-RES ovarian
  TGI: > 100 µM
OVCAR-3 ovarian
  TGI: 57.4 µM
OVCAR-4 ovarian
  TGI: > 100 µM
OVCAR-5 ovarian
  TGI: > 100 µM
OVCAR-8 ovarian
  TGI: > 100 µM
PC-3 prostate
  TGI: > 100 µM
RPMI-8226 leukemia
  TGI: > 100 µM
RXF 393 renal
  TGI: > 100 µM
SF-295 CNS
  TGI: > 100 µM
SF-539 CNS
  TGI: > 100 µM
SK-MEL-2 melanoma
  TGI: > 100 µM
SK-MEL-28 melanoma
  TGI: > 100 µM
SK-OV-3 ovarian
  TGI: > 100 µM
SN12C renal
  TGI: > 100 µM
SNB-19 CNS
  TGI: > 100 µM
SR leukemia
  TGI: > 100 µM
SW-620 colon
  TGI: > 100 µM
TK-10 renal
  TGI: > 100 µM
U251 CNS
  TGI: > 100 µM
UACC-257 melanoma
  TGI: > 100 µM
UACC-62 melanoma
  TGI: > 100 µM
UO-31 renal
  TGI: > 100 µM
